What was measured:
[1] = target: T1, WRN [UniPro: Q14191 (WRN_HUMAN), N500-C946] (Homo sapiens (Human), UniProt Q14191); test: WRN unwinding assay (FORKF DNA, fluorescence); type: biochemical; settings: Table 14
[2] = target: T1, WRN [UniPro: Q14191 (WRN_HUMAN), N500-C946]; test: WRN ATPase assay (ADP-Glo); type: biochemical; settings: WRN enzymatic activity assay

T1 sequence (Q14191 500-946): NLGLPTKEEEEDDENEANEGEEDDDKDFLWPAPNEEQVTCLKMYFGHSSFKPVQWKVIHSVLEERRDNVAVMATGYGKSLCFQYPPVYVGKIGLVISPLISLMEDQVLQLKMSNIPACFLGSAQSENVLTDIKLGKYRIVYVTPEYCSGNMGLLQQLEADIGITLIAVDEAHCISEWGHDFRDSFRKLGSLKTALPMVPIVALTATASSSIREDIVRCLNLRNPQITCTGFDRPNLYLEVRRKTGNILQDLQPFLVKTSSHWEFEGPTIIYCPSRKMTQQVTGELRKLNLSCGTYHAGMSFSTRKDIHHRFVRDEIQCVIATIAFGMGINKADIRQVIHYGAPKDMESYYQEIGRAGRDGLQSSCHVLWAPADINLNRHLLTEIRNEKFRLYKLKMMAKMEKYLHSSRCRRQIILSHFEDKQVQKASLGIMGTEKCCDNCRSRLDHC

Row | SMILES | IC50 [1] [nM] | IC50 [2] [nM]
1 | CCNC(=NCCCN(C)C)N1CCN(c2c(CC)n(CC(=O)Nc3ccc(C(F)(F)F)cc3C)c3nc(C4=CCOCC4)nn3c2=O)CC1 [Example 5, 2-(2-(3,6-Dihydro-2H-pyran-4-yl)-6-(4-(N′-(3-(dimethylamino)propyl)-N-ethylcarbamimidoyl)piperazin-1-yl)-5-ethyl-7-oxo-[1,2,4]triazolo[1,5-a]pyrimidin-4(7H)-yl)-N-(2-methyl-4-(trifluoromethyl)phenyl)acetamide] | > 1000 | > 1000
2 | CCc1c(N2CCN(C(=O)CNC(=O)c3cc(OC)ccc3F)CC2)c(=O)n2nc(C3=CCOCC3)nc2n1CC(=O)Nc1ccc(C(F)(F)F)cc1Cl [Example 378, N-(2-(4-(4-(2-((2-Chloro-4-(trifluoromethyl)phenyl)amino)-2-oxoethyl)-2-(3,6-dihydro-2H-pyran-4-yl)-5-ethyl-7-oxo-4,7-dihydro-[1,2,4]triazolo[1,5-a]pyrimidin-6-yl)piperazin-1-yl)-2-oxoethyl)-2-fluoro-5-methoxybenzamide] | < 100 | < 100
3 | CCc1c(N2CCN(C(=O)CNC(=O)NC(=O)c3cc(F)ccc3F)CC2)c(=O)n2nc(C3=CCOCC3)nc2n1CC(=O)Nc1ccc(C(F)(F)F)cc1Cl [Example 265, N-((2-(4-(4-(2-((2-Chloro-4-(trifluoromethyl)phenyl)amino)-2-oxoethyl)-2-(3,6-dihydro-2H-pyran-4-yl)-5-ethyl-7-oxo-4,7-dihydro-[1,2,4]triazolo[1,5-a]pyrimidin-6-yl)piperazin-1-yl)-2-oxoethyl)carbamoyl)-2,5-difluorobenzamide] | < 100 | < 100
4 | CCc1c(N2CCN(C(=O)C(=O)Nc3ccn[nH]3)CC2)c(=O)n2nc(C3=CCOCC3)nc2n1CC(=O)Nc1ccc(C(F)(F)F)cc1Cl [Example 333, 2-(4-(4-(2-((2-Chloro-4-(trifluoromethyl)phenyl)amino)-2-oxoethyl)-2-(3,6-dihydro-2H-pyran-4-yl)-5-ethyl-7-oxo-4,7-dihydro-[1,2,4]triazolo[1,5-a]pyrimidin-6-yl)piperazin-1-yl)-2-oxo-N-(1H-pyrazol-5-yl)acetamide] | < 100 | < 100
5 | CCc1c(N2CCN(C(=O)CNC(=O)c3ccccc3F)CC2)c(=O)n2nc(C3=CCOCC3)nc2n1CC(=O)Nc1ccc(C(F)(F)F)cc1F [Example 149, N-(2-(4-(2-(3,6-Dihydro-2H-pyran-4-yl)-5-ethyl-4-(2-((2-fluoro-4-(trifluoromethyl)phenyl)amino)-2-oxoethyl)-7-oxo-4,7-dihydro-[1,2,4]triazolo[1,5-a]pyrimidin-6-yl)piperazin-1-yl)-2-oxoethyl)-2-fluorobenzamide] | < 100 | < 100
6 | CCc1c(N2CCN(C(=O)CNC(=O)c3cccc(F)c3F)CC2)c(=O)n2nc(C3=CCOCC3)nc2n1CC(=O)Nc1ccc(C(F)(F)F)cc1Cl [Example 116, N-(2-(4-(4-(2-((2-Chloro-4-(trifluoromethyl)phenyl)amino)-2-oxoethyl)-2-(3,6-dihydro-2H-pyran-4-yl)-5-ethyl-7-oxo-4,7-dihydro-[1,2,4]triazolo[1,5-a]pyrimidin-6-yl)piperazin-1-yl)-2-oxoethyl)-2,3-difluorobenzamide] | < 100 | < 100
7 | CCc1c(N2CCN(c3nnc(C(F)F)s3)CC2)c(=O)n2nc(C3=CCOCC3)nc2n1CC(=O)Nc1ccc(C(F)(F)F)cc1Cl [Example 8, N-(2-Chloro-4-(trifluoromethyl)phenyl)-2-(6-(4-(5-(difluoromethyl)-1,3,4-thiadiazol-2-yl)piperazin-1-yl)-2-(3,6-dihydro-2H-pyran-4-yl)-5-ethyl-7-oxo-[1,2,4]triazolo[1,5-a]pyrimidin-4(7H)-yl)acetamide] | > 1000 | > 1000
